Measured values reported in US9487489B2, “Halogen-substituted pyrazole derivatives as pest-control agents” (BAYER CROPSCIENCE AKTIENGESELLSCHAFT, priority 2013, dated 2016).

Key:
[1] = tested on: larvae of the mustard beetle (Phaedon cochleariae); test: Phaedon cochleariae spray test (PHAECO); assay type: in vivo; conditions: Chinese cabbage leaf discs, after 7 days
Outline: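 Kill of mustard beetle larvae is read as % mortality 7 days after spraying. Spray liquid: active compound in acetone plus dimethylformamide, brought up with water holding 1000 ppm alkylaryl polyglycol ether emulsifier and diluted further in emulsifier-water.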

[2] = tested on: L1 larvae of the Australian sheep blowfly (Lucilia cuprina); test: Lucilia cuprina test (LUCICU); assay type: in vivo; conditions: application rate 100 ppm; after 2 days
Outline: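 Percent mortality read at 2 days; 100% = all larvae killed, 0% = none. Test compound, predissolved in DMSO and water-diluted to the wanted level, was mixed into minced horsemeat holding roughly 20 first-instar larvae.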

[3] = logP determination by HPLC on a reversed-phase column (C18), EEC Directive 79/831 Annex V.A8; assay type: physicochemical
Outline: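 Per EEC 79/831 Annex V.A8, values derive from HPLC retention at 2.0 ml/min and 55° C on a 50*4.6 C18 column. The 10→95% acetonitrile gradient (0.1%/0.09% formic acid) lasted 4.25 min plus a 1.25 min hold; mass detection was by MSD.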

[4] = tested on: adult houseflies (Musca domestica); test: Musca domestica test (MUSCDO); assay type: in vivo; conditions: application rate 100 ppm; after 2 days
Outline: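 Groups of 10 adult Musca domestica exposed to a sugar-soaked sponge treated with the water-diluted DMSO preparation of compound at the chosen concentration. Percent kill read at day 2, where 0% means no flies killed and 100% all killed.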

[5] = tested on: cattle ticks (Boophilus microplus) Parkhurst strain, SP-resistant; test: Boophilus microplus dip test (BOOPMI Dip); assay type: in vivo; conditions: application rate 100 ppm, assessed after 7 days
Outline: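 Adult engorged female SP-resistant Parkhurst ticks (8–10) were fully immersed in compound diluted in water from a DMSO solution, then kept in a climate-controlled room. After 7 days, fertile egg-laying was scored, with larval hatching checked at about 42 days; 100% efficacy means no fertile eggs.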

[6] = tested on: engorged adult female cattle ticks (Boophilus microplus); test: Boophilus microplus injection test (BOOPMI Inj); assay type: in vivo; conditions: application rate 20 μg/animal; injection into abdomen; assessed after 7 days
Outline: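 Efficacy is read at 7 days as fertile egg laying (100% = no fertile eggs laid; 0% = all eggs fertile), with eggs of unclear fertility stored until larvae hatch at about 42 days. Five engorged adult females per dose each receive an abdominal injection of 1 μl compound dissolved in DMSO.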

[7] = tested on: greenhouse red spider mite (Tetranychus urticae); test: Tetranychus urticae spray test, OP-resistant (TETRUR); assay type: in vivo; conditions: bean leaf discs, after 6 days
Outline: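 Percent kill, scored 6 days post-spray (0% = none dead, 100% = all dead), on Phaseolus vulgaris leaf discs infested with every life stage of the OP-resistant spider mite. Compound dissolved in acetone plus DMF, diluted to test concentration with emulsifier-containing water (1000 ppm).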

[8] = tested on: Tick nymphs (Amblyomma hebraeum); test: Amblyomma hebraeum test (AMBYHE), tick nymphs immersed; assay type: in vivo; conditions: application rate 100 ppm; immersed one minute; after 42 days
Description: A. Amblyomma hebaraeum Test (AMBYHE)
Solvent: dimethyl sulphoxide
To produce a suitable preparation of active compound, 10 mg of active compound are mixed with 0.5 ml of dimethyl sulfoxide, and the concentrate is diluted with water to the desired concentration.
Tick nymphs (Amblyomma hebraeum) are placed into perforated plastic beakers and immersed in the desired concentration for one minute. The ticks are transferred on filter paper into a Petri dish and stored in a climate-controlled cabinet.
After 42 days, the kill in % is determined. 100% means that all of the ticks have been killed; 0% means that none of the ticks have been killed.

[9] = tested on: green peach aphid (Myzus persicae); test: Myzus persicae spray test (MYZUPE); assay type: in vivo; conditions: Chinese cabbage leaf discs, after 6 days
Outline: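 Chinese cabbage leaf discs infested with all aphid stages sprayed with compound in acetone/DMF with alkylaryl polyglycol ether emulsifier in water. Efficacy (% aphids killed; 100% all dead, 0% none) scored after 6 days.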

[10] = HPLC, reversed-phase C18, acetonitrile (0.1% formic acid)/water (0.09% formic acid) gradient
[11] = HPLC on reversed-phase column (C18), acetonitrile/water with formic acid, EEC Directive 79/831 Annex V.A8

Compound	efficacy in % ([1]; application rate 100 g/ha) [%]	efficacy (kill in %) [2] [%]	logP [3, 10]	efficacy (kill in %) [4] [%]	efficacy (laying of fertile eggs) [5] [%]	efficacy (laying of fertile eggs) [6] [%]	efficacy in % ([7]; application rate 100 g/ha) [%]	efficacy (kill in %) [8] [%]	efficacy in % ([1]; application rate 500 g/ha) [%]	chromatographic logP [3]	efficacy in % ([9]; application rate 500 g/ha) [%]	efficacy in % ([7]; application rate 500 g/ha) [%]	logP [3, 11]	efficacy in % ([9]; application rate 100 g/ha) [%]
Cn1nc(C(F)(F)C(F)(F)F)c(C(F)(F)F)c1-n1ccc(-c2ccc(Cl)c(C(=O)NC3(C#N)CC3)c2)c1 [Ia-1]	100	100	3.99	80	100	100	100	100						
Cn1nc(C(F)(F)C(F)(F)F)c(C(F)(F)F)c1-n1ccc(-c2ccc(Cl)c(C(=O)NC3CC3)c2)c1 [Ia-2]	100	100	4.08	90	100	100	90	100						
Cn1nc(C(F)(F)C(F)(F)F)c(C(F)(F)F)c1-n1cnc(-c2ccc(Cl)c(C(=O)NC3CC3)c2)c1 [Ib-3]	100	100	3.43	100	100	100	100	100						
Cn1nc(C(F)(F)C(F)(F)F)c(C(F)(F)F)c1-n1cc(-c2ccc(Cl)c(C(=O)NC3CC3)c2)cn1 [Ic-1, 2-Chloro-N-cyclopropyl-5-[2′-methyl-5′-(pentafluoroethyl)-4′-(trifluoromethyl)-2′H-1,3′-bipyrazol-4-yl]benzamide]		100		100	100	100		100	100	3.79	90	100		
Cn1nc(C(F)(F)C(F)(F)F)c(C(F)(F)F)c1-n1cc(-c2ccc(Cl)c(C(=O)NC3(C#N)CC3)c2)cn1 [Ic-2]	100	100		100	100	100	100	100					3.72	100
Cn1nc(C(F)(F)C(F)(F)F)c(C(F)(F)F)c1-n1cc(-c2ccc(Cl)c(C(=O)NC3(C(N)=S)CC3)c2)cn1 [Ic-11]	100	100		100	100	100	90	100					3.59	100
CCn1nc(C(F)(F)C(F)(F)F)c(C(F)(F)F)c1-n1cc(-c2ccc(Cl)c(C(=O)NC3CC3)c2)cn1 [Ic-16]	100	100		100	100	100		100					4.14	
Cn1nc(C(F)(F)C(F)(F)F)c(C(F)(F)F)c1-n1cc(-c2ccc(Cl)c(C(=O)NCC(F)(F)F)c2)cn1 [Ic-23]	100	100		100	100	100	100	100					4.17	
Cn1nc(C(F)(F)C(F)(F)F)c(C(F)(F)F)c1-n1cc(-c2cc(F)c(Cl)c(C(=O)NC3CC3)c2)cn1 [Ic-24]		100		100	100	100		100	100		90	100	3.90	
Cn1nc(C(F)(F)C(F)(F)F)c(C(F)(F)F)c1-n1cc(-c2cc(F)c(Cl)c(C(=O)NC3(C#N)CC3)c2)cn1 [Ic-27]		100		100	100	100		100	100		90	100	3.87	
Cn1nc(C(F)(F)C(F)(F)F)c(C(F)(F)F)c1-n1cc(-c2ccc(F)c(C(=O)NC3CC3)c2)cn1 [Ic-37]	100	100		100	100	100	100	100					3.79	
Cn1nc(C(F)(F)C(F)(F)F)c(C(F)(F)F)c1-n1cc(-c2ccc([N+](=O)[O-])c(C(=O)NC3CC3)c2)cn1 [Ic-66]	100	100		100	100	100	100						3.53	90
Cn1nc(C(F)(F)C(F)(F)F)c(C(F)(F)F)c1-n1cc(-c2ccc(Cl)c(C(=O)NCC(F)F)c2)cn1 [Ic-78]	100	100		100	100	100	100						3.86	90
Cn1nc(C(F)(F)C(F)(F)F)c(C(F)(F)F)c1-n1cc(-c2ccc(Cl)c(C(=O)NC3CC3F)c2)cn1 (centres unmarked) [Ic-81]	100	100		100	100	100	100						3.8	90
Cc1ncc(-c2cnn(-c3c(C(F)(F)F)c(C(F)(F)C(F)(F)F)nn3C)c2)cc1C(=O)NC1CC1 [Ic-84]		100		100	100	100		100	100		100	100		
Cn1nc(C(F)(F)C(F)(F)F)c(C(F)(F)F)c1-n1cc(-c2cc(Cl)c(Cl)c(C(=O)NC3CC3)c2)cn1 [Ic-94]		100		100	100	100		100	100		100	100		
CN(C(=O)c1cc(-c2cnn(-c3c(C(F)(F)F)c(C(F)(F)C(F)(F)F)nn3C)c2)ccc1Cl)C1(C#N)CC1 [Ic-96]	100	100		100	100	100	100						4.1	100
